Data: patent US8119640B2, “Hedgehog pathway antagonists methods of use” (The Board of Trustees of the Leland Stanford Junior …, priority 2008, dated 2012)

Assays:
[1] = system: Gli2 αPKA; assay: Hh pathway activation by overexpressed Gli2 phosphosite mutants; type: cell-based; details: NIH-3T3 cells; 15 μM HPI-1, 20 μM HPI-2
Protocol: Hh pathway activation mediated by the overexpression of Gli, Gli2, Gli2αPKA, or Gli2αGSK. […] The cells were co-transfected the following day with 220 ng/well pcDNA-derived Gli1, Gli2, or Gli2 phosphosite mutant expression vectors and 80 ng/well of a 1:15 mixture of phRLTK (Promega) and 8XGIiBS-FL. After transfection, cells were grown to confluence (approximately 48 h). The cell were then incubated for an additional 28-32 h in DMEM containing 0.5% CS, 100 U/mL penicillin, 0.1 mg/mL streptomycin, and either DMSO, 50 μM forskolin, 50 μM LY294002, or various concentrations of the HPIs. Firefly and Renilla luciferase activities were measured using a dual luciferase kit and a Veritas microplate luminometer.

[2] = system: CREB; assay: PKA-mediated CREB phosphorylation assay; type: cell-based; details: NIH-3T3 cells; 15 μM HPI-1, 20 μM HPI-2
Protocol: PKA-mediated CREB phosphorylation assay. […] The cells were cultured for an additional 2 h and then lysed in hot 2×SDS-PAGE sample buffer (100 mM Tris, pH 6.8, 200 mM DTT, 0.02% bromophenol blue, 16 20 mM NaF, 2 mM sodium orthovandate, 4% SDS, and 20% glycerol). After the samples were boiled for 5 min, they were resolved on 4-12% Criterion XT gels (Bio-Rad) and transferred to PVDF membranes (Millipore). The membranes were blocked overnight in TBST buffer (Trisbuffered saline with 0.1% Tween 20) containing 5% bovine serum albumin and then probed with either anti-phosphorylated CREB (87G3, Cell Signaling Technology; 1:1,000 dilution) or CREB (48H2, Cell Signaling Technology, 1:1,000 dilution) antibodies.

[3] = system: Math1-cre:SmoM2 cerebellar GNPs; assay: Math1-cre:SmoM2 cerebellar GNP proliferation; type: cell-based, mice; details: for Proliferation of SmoM2-expressing GNPs (histone H3 phosphorylation): HPIs 10 μM, cyclopamine 5 μM, 24 h
Protocol: Analysis of Math1-cre:SmoM2 cerebellar GNP proliferation. To generate Math1-cre:SmoM2 tumors (11), a Math1-cre driver was used to conditionally express an activated Smo (SmoM2) allele. The Gt(ROSA)26Sortm1 (Smo/EYFP)Amc/J) mouse line was obtained from Jackson Laboratory (Bar Harbor, ME). […] Primary cultures from Math1-cre:SmoM2 tumors were established by triturating tumor tissue and plating the dissociated cells onto poly-D-ornithine-coated plates in DMEM-F-12 with N2 supplement, 25 mM KCI, and antibiotics. After culturing the cells for 24 h, they were treated with individual HPIs ([…]) for 24 h. Cell proliferation was then quantified by immunocytochemistry, and the expression of cyclin D1 and Gli1 were assessed by immunoblotting and RT-PCR, respectively. For immunocytochemistry, the primary cultures were fixed in 4% paraformaldehyde for 30 min at room temperature. […] Immunofluorescently stained cultures were imaged using a Nikon Eclipse E600 microscope equipped with a 20×objective. Approximately 30,000 cells were analyzed for each experimental condition. To detect proteins by immunoblotting, non-denaturing lysates were prepared from Math1-cre:SmoM2 cultures using lysate buffer (50 mM HEPES, pH 7.4, containing 150 mM NaCl, 1 mM EDTA, 2.5 mM EGTA, 0.1% Triton X-100, 10% glycerol, and 1 mM DTT), resolved on a 10% SDS-PAGE gel, and transferred onto a PVDF membrane. The membrane was incubated overnight at 4° C. with anti-cyclin D1 (Ab-3, Neomarkers; 1:1,000 dilution) or anti-β-tubulin (T4026, Sigma; 1:5,000 dilution) antibodies. […] For RT-PCR analyses, total RNA from Math1-cre:SmoM2cultures was extracted with TRIzol (Invitrogen) according to the manufacturer's protocol. The RNA was purified further […] with an RNeasy kit (Qiagen), and then reverse-transcribed with an Advantage RT-for-PCR Kit (Clontech) and random hexamer primers. […] Typical PCR conditions were as follows: an initial denaturation at 95° C. for 1 min followed by 28 cycles of denaturation at 94° C. for 45 sec, annealing at 60° C. for 45 sec, extension at 70° C. for 2 min, and a final extension at 72° C. for 7 min. The resulting PCR products were analyzed on 2% agarose gels.

[4] = system: FLAG-Gli1; assay: Immunostaining of FLAG-Gli1 line: FLAG-Gli1 localization; type: cell-based, mouse; details: Shh-LIGHT2 FLAG-Gli1 cells
Protocol: Immunostaining of FLAG-Gli lines and NIH-3T3 cells. The FLAG-Gli1-expressing or FLAG-Gli2-expressing clonal cell lines were seeded into 24-well plates (80,000 cells/well) containing poly-D-lysine-coated 12-mm glass coverslips. […] The cells were subsequently fixed in 4% paraformaldehyde for 10 min at room temperature followed by treatment with methanol at −20° C. for 2 to 5 min. The cells were washed with PBS, permeabilized with 0.2% Triton X-100 for 2 to 5 min, and then blocked with PBS containing 2% BSA for 3 h at room temperature. […] In order to quantify ciliary Gli2 localization, a circular region with diameter equal to the average width of cilia as determined by the anti-Arl13b antibody staining was manually placed at the distal end of each cilium. Regions were transferred from the anti-Arl13b antibody image to the anti-FLAG antibody image, and FLAG staining intensities within those areas were assessed. Between 40 and 80 cilia were analyzed for each condition. To normalize ciliary FLAG-Gli2 levels with respect to compound-dependent changes in total FLAG-Gli2 levels, the absolute average intensities for each condition were divided by the fold change in FLAG-Gli2 levels, as determined by the quantitative immunoblotting described above. Quantification of ciliary FLAG-Gli1 levels was performed in an analogous manner. […]

SMILES	Sensitivity of overexpressed Gli2 αPKA mutant to compound [1]	PKA-dependent phosphorylation of CREB [2]	Cellular levels of cyclin D1 protein and Gli1 transcripts in GNPs [3]	Proliferation of SmoM2-expressing GNPs (histone H3 phosphorylation) [3]	Ciliary FLAG-Gli1 levels [4]	Subcellular localization of FLAG-Gli1 [4]
COCCOC(=O)C1=C(C)NC2=C(C(=O)CC(c3ccccc3OC)C2)C1c1cccc(O)c1 (mixture of isomers) [Compound 8, 4-(3-Hydroxy-phenyl)-7-(2-methoxy-phenyl)-2-methyl-5-oxo-1,4,5,6,7,8-hexahydro-quinoline-3-carboxylic acid 2-methoxy-ethyl ester]	partially resistant	does not induce the PKA-dependent phosphorylation	reduced cellular levels of cyclin D1 protein and Gli1 transcripts	significantly inhibited the proliferation		
OCCNc1nc(N2CCN(c3ccccc3)CC2)nc2ccccc12 [Compound 11]				did not block GNP proliferation		
COc1ccc(OC)c2c1cc1n2CC(C)(C(=O)NC2CCCCCCC2)N(CCN(C)C)C1=O (stereo not drawn) [Compound 17]	partially resistant	significantly lower than that observed in forskolin-treated cells		did not block GNP proliferation		
N#CC(C(=O)c1ccc(Cl)cc1Cl)=C1NC(=O)c2ccccc2N1 [Compound 18]			reduced cellular levels of cyclin D1 protein and Gli1 transcripts	significantly inhibited the proliferation	promoted accumulation of FLAG-Gli1 at the distal tip of this organelle relative to total FLAG-Gli1 levels	reduced cytoplasmic levels of the transcription factor but retained nuclear FLAG-Gli1
